Assays:
[1] = test system: E. coli mutant strain Rev. 1; experiment: Phenotype of revertant (resistance or sensitivity); format: cell-based, Escherichia coli; design: key: R: resistance; S: sensitivity; conditions: gyrA GAT-GGT(242), Asp-Gly 81
From the text: (§1) The strains of E coli of the investigation, their phenotypes in terms of a-arteether (resistance or sensitivity, superscript R or S) or antibiotic resistance or sensitivity, change in nucleotide position of the gyrase A gene leading to the phenotype, corresponding amino acid change in the protein and the position of amino acid change are being described. Always the phenotype a-arteether resistance is accompanied with quinolone or fluoroquinolone sensitivity and vice versa.
(§2) The commercially available strain E. coli DH5[…] (Stratagene, USA) is sensitive to […]-arteether but resistant to quinolone/fluoroquinolone due to a mutation at 87th aminoacid position of the gyr A protein (Aspartic acid of wild type is changed to Aspargine) with corresponding change in the codon GAC to AAC. This strain was used to screen […]-arteether resistant mutations. The observation was startling as the […]-arteether resistant mutants are the exact reversion at the 87th position of the aminoacid of gyrase A subunit i.e. Aspargine changed to aspartic acid, with corresponding change in the codon AAC to GAC.

[2] = test system: E. coli mutant strain Rev 6; experiment: Phenotype of revertant (resistance or sensitivity); format: cell-based, Escherichia coli; design: key: R: resistance; S: sensitivity; conditions: gyrA GAT-GGT(242), Asp-Gly 81
From the text: as §1, §2

[3] = test system: E. coli mutant strain Rev 5; experiment: Phenotype of revertant (resistance or sensitivity); format: cell-based, Escherichia coli; design: key: R: resistance; S: sensitivity; conditions: gyrA GAT-GGT(242), Asp-Gly 81
From the text: as §1, §2

[4] = test system: E. coli mutant strain Rev. 3; experiment: Phenotype of revertant (resistance or sensitivity); format: cell-based, Escherichia coli; design: key: R: resistance; S: sensitivity; conditions: gyrA GAT-GGT(242), Asp-Gly 81
From the text: as §1, §2

[5] = test system: E. coli mutant strain Rev. 2; experiment: Phenotype of revertant (resistance or sensitivity); format: cell-based, Escherichia coli; design: key: R: resistance; S: sensitivity; conditions: gyrA GAT-GGT(242), Asp-Gly 81
From the text: as §1, §2

[6] = test system: E. coli mutant strain Rev 4; experiment: Phenotype of revertant (resistance or sensitivity); format: cell-based, Escherichia coli; design: key: R: resistance; S: sensitivity; conditions: gyrA GAT-GGT(242), Asp-Gly 81
From the text: as §1, §2

[7] = test system: E. coli mutant strain AR 9 CA8014; experiment: Phenotype of revertant (resistance or sensitivity); format: cell-based, Escherichia coli; design: key: R: resistance; S: sensitivity; conditions: gyrA AAC-GAC(259), Asn-Asp 87
From the text: as §1, §2

[8] = test system: E. coli NK5819; experiment: Phenotype of strain (resistance or sensitivity); format: cell-based, Escherichia coli; design: key to Phenotype: R: resistance; S: sensitivity
Protocol: (§3) To ascertain the involvement of gyrA mutation, another E.coli strain NK 5819 which is also GyrA″ and nalidixic acid resistant was tested for arteether sensitivity. As expected, strain NK5819 was also sensitive only to a-isomer of arteether. […] The assays for arteether sensitivity was performed by the standard single disk diffusion method (Bauer et al, 1966). As a next step, we isolated gyrA mutants of E.coli strain CA 8000, which is otherwise Gyr+ and nalidixic acid sensitive. The gyrA mutants of CA8000 were isolated as nalidixic acid resistant colonies (20 ug/ml), after mutagenic treatment with NTG ([…]). The isolated CA8000 gyrA mutants were also sensitive only to a isomer of arteether. […] To define precisely the involvement of gyr genes only in the a-arteether sensitivity, we utilised two recombinant clones (pMK 90 and pMK47 containing functional gyr A and gyrB genes respectively) in trans-complementation assays. For this purpose, we mobilized the plasmid clones into the E.coli gyr mutant strains. The resulting transformants were now nalidixic acid sensitive and a-arteether resistant. This constituted the direct evidence supporting our observation that DNA gyrase enzyme alone is involved in conferring a-arteether sensitivity to E.coli strain. […] DNA gyrase enzyme is essential for the bacterial growth. This enzyme transiently breaks the DNA strands and introduces negative superhelical turns in an ATP-dependent process. The E.coli DNA gyrase enzyme is a tetramer with two subunits A and B. These two subunits are nalidixic acid and coumermycin sensitive respectively (U.S. Pat. No. 6,127,405 and a co-pending patent).
as §1

[9] = test system: gyr mutant strains of E.coli; conditions: U.S. Pat. No. 6,127,405; cited from earlier work
[10] = test system: E.coli strains which do not carry gyr mutation (wild type strains); experiment: Arteether sensitivity of strains without gyr mutation; format: cell-based, Escherichia coli
Protocol: (§4) As a result of this mutation, the said strain is also resistant to a drug called nalidixic acid.
To ascertain the involvement of gyrA mutation, another E.coli strain NK 5819 which is also GyrA″ and nalidixic acid resistant was tested for arteether sensitivity. As expected, strain NK5819 was also sensitive only to a-isomer of arteether. […] The assays for arteether sensitivity was performed by the standard single disk diffusion method (Bauer et al, 1966). As a next step, we isolated gyrA mutants of E.coli strain CA 8000, which is otherwise Gyr+ and nalidixic acid sensitive. The gyrA mutants of CA8000 were isolated as nalidixic acid resistant colonies (20 ug/ml), after mutagenic treatment with NTG ([…]). The isolated CA8000 gyrA mutants were also sensitive only to a isomer of arteether. […] To define precisely the involvement of gyr genes only in the a-arteether sensitivity, we utilised two recombinant clones (pMK 90 and pMK47 containing functional gyr A and gyrB genes respectively) in trans-complementation assays. For this purpose, we mobilized the plasmid clones into the E.coli gyr mutant strains. The resulting transformants were now nalidixic acid sensitive and a-arteether resistant. This constituted the direct evidence supporting our observation that DNA gyrase enzyme alone is involved in conferring a-arteether sensitivity to E.coli strain. […]

[11] = test system: E.coli strains which do not carry gyr mutation (wild type strains); conditions: U.S. Pat. No. 6,127,405; cited from earlier work
[12] = test system: E. coli ET8000; experiment: Phenotype of strain (resistance or sensitivity); format: cell-based, Escherichia coli; design: key: R: resistance; S: sensitivity; conditions: gyrA GAC-AAC(259), Asp-Asn 87
From the text: as §1

[13] = test system: E. coli CA8003; experiment: Phenotype of strain (resistance or sensitivity); format: cell-based, Escherichia coli; design: key: R: resistance; S: sensitivity; conditions: gyrA GAC-GGC(260), Asp-Gly 87
From the text: (§5) In order to develop an arteether resistant mutants from an arteether sensitive strains a reverse strategy was applied. Quinoline/fluoroquinolone (Q/FQs) resistant strains were developed spontaneously i.e. screening overnight log phase culture of the Quinolone/fluoroquinolone sensitive i.e. arteether resistant strain (E coli CA 8000) on the poison agar plate of the Q/FQs. The Q/FQ resistant mutants which appeared on the poison agar plates were first purified through single colony purification and then checked for their arteether sensitivity. These arteether sensitive mutants on the contrary when checked for their Q/Fqs resistance they show different level of Q/FQs resistance.
as §1

[14] = test system: E. coli CA8009; experiment: Phenotype of strain (resistance or sensitivity); format: cell-based, Escherichia coli; design: key: R: resistance; S: sensitivity; conditions: gyrA TCG-TTG(248), Ser-Leu 83
From the text: as §5, §1

[15] = test system: E. coli CA8012; experiment: Phenotype of strain (resistance or sensitivity); format: cell-based, Escherichia coli; design: key: R: resistance; S: sensitivity; conditions: gyrA GGT-GAT(242), Gly-Asp 81
From the text: as §5, §1

[16] = test system: E. coli CA8001; experiment: Phenotype of strain (resistance or sensitivity); format: cell-based, Escherichia coli; design: key: R: resistance; S: sensitivity; conditions: gyrA GGT-TGT(241), Gly-Cys 81
From the text: as §5, §1

[17] = test system: E. coli CA8002; experiment: Phenotype of strain (resistance or sensitivity); format: cell-based, Escherichia coli; design: key: R: resistance; S: sensitivity; conditions: gyrA GGT-TGT(241), Gly-Cys 81
From the text: as §5, §1

[18] = test system: E. coli CA8005; experiment: Phenotype of strain (resistance or sensitivity); format: cell-based, Escherichia coli; design: key: R: resistance; S: sensitivity; conditions: gyrA GAC-GGC(260), Asp-Gly 87
From the text: as §5, §1

[19] = test system: E. coli CA8007; experiment: Phenotype of strain (resistance or sensitivity); format: cell-based, Escherichia coli; design: key: R: resistance; S: sensitivity; conditions: gyrA TCG-TTG(248), Ser-Leu 83
From the text: as §5, §1

[20] = test system: E. coli CA8010; experiment: Phenotype of strain (resistance or sensitivity); format: cell-based, Escherichia coli; design: key: R: resistance; S: sensitivity; conditions: gyrA TCG-TTG(248), Ser-Leu 83
From the text: as §5, §1

[21] = test system: E. coli CA8006; experiment: Phenotype of strain (resistance or sensitivity); format: cell-based, Escherichia coli; design: key: R: resistance; S: sensitivity; conditions: gyrA TCG-TTG(248), Ser-Leu 83
From the text: as §5, §1

[22] = test system: E.coli strain MTCC 482 (GyrB, defective in DNA gyrase B subunit); experiment: Arteether sensitivity, single disk diffusion; format: cell-based, Escherichia coli; conditions: E.coli MTCC 482 (gyrB)
Protocol: (§6) To ascertain the involvement of gyrA mutation, another E.coli strain NK 5819 which is also GyrA″ and nalidixic acid resistant was tested for arteether sensitivity. As expected, strain NK5819 was also sensitive only to a-isomer of arteether. […] The assays for arteether sensitivity was performed by the standard single disk diffusion method (Bauer et al, 1966). As a next step, we isolated gyrA mutants of E.coli strain CA 8000, which is otherwise Gyr+ and nalidixic acid sensitive. The gyrA mutants of CA8000 were isolated as nalidixic acid resistant colonies (20 ug/ml), after mutagenic treatment with NTG ([…]). The isolated CA8000 gyrA mutants were also sensitive only to a isomer of arteether. […] To define precisely the involvement of gyr genes only in the a-arteether sensitivity, we utilised two recombinant clones (pMK 90 and pMK47 containing functional gyr A and gyrB genes respectively) in trans-complementation assays. For this purpose, we mobilized the plasmid clones into the E.coli gyr mutant strains. The resulting transformants were now nalidixic acid sensitive and a-arteether resistant. This constituted the direct evidence supporting our observation that DNA gyrase enzyme alone is involved in conferring a-arteether sensitivity to E.coli strain. […] DNA gyrase enzyme is essential for the bacterial growth. […]

[23] = test system: gyrA mutants of E.coli strain CA 8000 (nalidixic acid resistant colonies after NTG); experiment: Arteether sensitivity, single disk diffusion; format: cell-based, Escherichia coli; conditions: isolated CA8000 gyrA mutants
Protocol: as §6

[24] = test system: E.coli gyr mutant strains transformed with pMK 90 and pMK47 (functional gyr A and gyrB genes); experiment: Trans-complementation assay; format: cell-based, Escherichia coli; conditions: gyr mutant strains carrying pMK 90 / pMK47
Protocol: as §6

[25] = test system: E. coli DH5α; experiment: Phenotype of strain (resistance or sensitivity); format: cell-based, Escherichia coli; design: key to Phenotype: R: resistance; S: sensitivity; conditions: for Sensitivity or resistance of the strain (words): E.coli DH5a (gyrA 96; Asp87Asn)
Protocol: as §4, §3, §1

With CCO[C@@H]1O[C@@H]2O[C@]3(C)CC[C@H]4[C@H](C)CC[C@@H]([C@H]1C)[C@@]24OO3 [a-arteether, α-arteether] the Phenotype [1] was “R”, the Phenotype [2] was “R” and the Phenotype [3] was “R”. The Phenotype [4] was “R”, the Phenotype [5] was “R” and the Phenotype [6] was “R”. The Phenotype [7] was “R”, the “Sensitivity or resistance of the strain (words)” value ([8]; E.coli NK 5819 (GyrA mutant)) was “sensitive” and the Phenotype ([8]; NK5819, gyrA GAC-TAC(259), Asp-Gly 87) was “S”. For the same molecule, the “Inhibitory activity” value [9] was “inhibitory”, the “Sensitivity or resistance” value [10] was “invariably resistant” and the “Inhibitory activity” value [11] was “ineffective”. The Phenotype [12] was “S”, the Phenotype [13] was “S” and the Phenotype [14] was “S”. The Phenotype [15] was “S”, the Phenotype [16] was “S” and the Phenotype [17] was “S”. For the same molecule, the Phenotype [18] was “S”, the Phenotype [19] was “S” and the Phenotype [20] was “S”. The Phenotype [21] was “S”, the “Arteether sensitivity” value [22] was “susceptible” and the “Arteether sensitivity” value [23] was “sensitive”. The “Sensitivity or resistance of transformants” value [24] was “resistant”, the Phenotype ([25]; DH5α, gyrA GAC-AAC(259), Asp-Asn 87) was “S” and the “Sensitivity or resistance of the strain (words)” value ([25]; listed as a isomer of arteether) was “able to inhibit the growth”. For the same molecule, the “Sensitivity or resistance of the strain (words)” value ([25]; listed as α-arteether) was “sensitive” and the “Sensitivity or resistance of the strain (words)” value ([25]; listed as […]-arteether) was “sensitive”.

From patent US7510836B2, “Alpha arteether resistance domain” (priority 2003, dated 2009)
